The results in this text go back to PubChem BioAssay AID282 (DTP/NCI, 2004).

Molecules are shown by their SMILES. “And” between values parts separate entries of the source, which are not always exact repeats. Equal values may be shown once. Toxic doses and inconclusive results are not listed.

The subject of this experiment is BDF1 mice, L1210 terephthalanilide-resistant leukemia ip, survival T/C. Nature of the experiment: NCI In Vivo Anticancer Drug Screen. Data for tumor model L1210 Leukemia resistant to A Terephthalanilide; NSC 38280 (intraperitoneal) in B6D2F1 (BDF1) mice. The following applies: endpoint: mean survival time, higher = longer survival. How it is done:
The antitumor activity of compounds was measured in mice bearing transplantable tumors. Survival or tumor size were measured and the results are expressed as the measurement made in the treated group (T) divided by the measurement made in the vehicle treated control group (C). The tumor model used in this assay is L1210 Leukemia resistant to A Terephthalanilide; NSC 38280 (intraperitoneal) in B6D2F1 (BDF1) mice

The mark [1] stands for this setting: dose: 125.0 mg/kg/injection, schedule: Q01DX010 (ip), vehicle: saline.
Where [2] appears, read: dose: 50.0 mg/kg/injection, schedule: Q01DX010 (ip), vehicle: saline.
[3] abbreviates: dose: 100.0 mg/kg/injection, schedule: Q01DX010 (ip), vehicle: saline.
Setting [4] is: dose: 4.0 mg/kg/injection, schedule: Q01DX010 (ip), vehicle: saline.
The mark [5] stands for this setting: dose: 8.0 mg/kg/injection, schedule: Q01DX010 (ip), vehicle: saline.
[6] abbreviates: dose: 16.0 mg/kg/injection, schedule: Q01DX010 (ip), vehicle: saline.
The mark [7] stands for this setting: dose: 25.0 mg/kg/injection, schedule: Q01DX Z (ip), vehicle: saline.
Where [8] appears, read: dose: 32.0 mg/kg/injection, schedule: Q01DX010 (ip), vehicle: saline.
[9] abbreviates: dose: 50.0 mg/kg/injection, schedule: Q01DX Z (ip), vehicle: saline.
The mark [10] stands for this setting: dose: 75.0 mg/kg/injection, schedule: Q01DX Z (ip), vehicle: saline.
Setting [11] is: dose: 100.0 mg/kg/injection, schedule: Q01DX Z (ip), vehicle: saline.
Where [12] appears, read: dose: 200.0 mg/kg/injection, schedule: Q01DX Z (ip), vehicle: saline.
[13] abbreviates: dose: 15.0 mg/kg/injection, schedule: Q01DX010 (ip), vehicle: saline.
Setting [14] is: dose: 20.0 mg/kg/injection, schedule: Q01DX010 (ip), vehicle: saline.
The mark [15] stands for this setting: dose: 500.0 mg/kg/injection, schedule: Q01DX Z (ip), vehicle: saline.
[16] abbreviates: dose: 1000.0 mg/kg/injection, schedule: Q01DX Z (ip), vehicle: saline.

Turning to `CCCSc1ncnc2nc[nH]c12`, the T/C (dose: 31.3 mg/kg/injection, schedule: Q01DX010 (ip), vehicle: saline) is 95 % of control and 99 % of control; the T/C (dose: 44.0 mg/kg/injection, schedule: Q01DX Z (ip), vehicle: other) was 96 % of control; the T/C (dose: 62.5 mg/kg/injection, schedule: Q01DX010 (ip), vehicle: saline) is 106 % of control and 111 % of control; the T/C (dose: 87.5 mg/kg/injection, schedule: Q01DX Z (ip), vehicle: other) is 121 % of control; the T/C under setting [1] was 100 % of control and 111 % of control.

As for `C#CCN(C)Cc1ccccc1`, the T/C is 91 % of control under setting [2]; 102 % of control under setting [3]; 93 % of control (dose: 200.0 mg/kg/injection, schedule: Q01DX010 (ip), vehicle: saline).

Regarding `CCN(CC)c1ccc2cc3ccc(=[N+](CC)CC)cc-3oc2c1`, the T/C (dose: 1.0 mg/kg/injection, schedule: Q01DX010 (ip), vehicle: saline) is 98 % of control; the T/C (dose: 2.0 mg/kg/injection, schedule: Q01DX010 (ip), vehicle: saline) was 91 % of control; the T/C under setting [4] is 96 % of control.

With `C[C@]12C=CC(=O)C=C1CC[C@@H]1[C@@H]2[C@@H](O)C[C@@]2(C)[C@H]1CC[C@]2(O)C(=O)CO`, the T/C was 100 % of control (dose: 12.5 mg/kg/injection, schedule: Q01DX010 (sc), vehicle: steriod suspending solution); 100 % of control (dose: 25.0 mg/kg/injection, schedule: Q01DX010 (sc), vehicle: steriod suspending solution); 98 % of control (dose: 50.0 mg/kg/injection, schedule: Q01DX010 (sc), vehicle: steriod suspending solution); 95 % of control (dose: 100.0 mg/kg/injection, schedule: Q01DX010 (sc), vehicle: steriod suspending solution).

Regarding `CN(C)c1ccc(/C=C/c2ccnc3ccccc23)cc1`, the T/C by setting is: under setting [4], 96 % of control and 97 % of control; (dose: 6.25 mg/kg/injection, schedule: Q01DX Z (ip), vehicle: saline) 90 % of control; under setting [5], 100 % of control and 101 % of control; (dose: 12.5 mg/kg/injection, schedule: Q01DX Z (ip), vehicle: saline) 100 % of control; under setting [6], 99 % of control and 100 % of control; under setting [7], 100 % of control. Further, the T/C reads like this: under setting [8], 101 % of control; under setting [9], 90 % of control; under setting [10], 96 % of control and 100 % of control; under setting [11], 94 % of control and 108 % of control; (dose: 150.0 mg/kg/injection, schedule: Q01DX Z (ip), vehicle: saline) 96 % of control and 102 % of control; under setting [12], 94 % of control.

On to `CSc1ncnc2c1ncn2C1OC(CO)C(O)C1O` (stereo not drawn), for which the T/C is, setting by setting: under setting [4], 105 % of control; (dose: 5.5 mg/kg/injection, schedule: Q01DX Z (ip), vehicle: saline) 117 % of control; under setting [5], 116 % of control; under setting [13], 151 % of control; under setting [6], 122 % of control; under setting [14], 162 % of control. Also, the T/C is 154 % of control (dose: 37.5 mg/kg/injection, schedule: Q01DX Z (ip), vehicle: saline); 101 % of control under setting [9]; 88 % of control under setting [10].

With `CC[n+]1ccccc1-c1ccc(NC(=O)c2ccc(C(=O)Nc3ccc(-c4ccccn4)cc3)cc2)cc1`, the T/C is 115 % of control (dose: 2.5 mg/kg/injection, schedule: Q01DX010 (ip), vehicle: saline); 119 % of control (dose: 10.0 mg/kg/injection, schedule: Q01DX010 (ip), vehicle: saline); 92 % of control under setting [14].

With `COS(C)(=O)=O`, the T/C runs as follows: (dose: 12.5 mg/kg/injection, schedule: Q01DX010 (ip), vehicle: saline) 93 % of control; (dose: 25.0 mg/kg/injection, schedule: Q01DX010 (ip), vehicle: saline) 101 % of control; under setting [7], 95 % of control; under setting [2], 102 % of control; under setting [9], 101 % of control; under setting [10], 106 % of control. The T/C under setting [3] was 100 % of control and the T/C under setting [11] is 106 % of control.

In the case of `O=C(Nc1ccc(C2=NCCN2)cc1)Nc1cccc(NC(=O)Nc2ccc(C3=NCCN3)cc2)c1`, the T/C was 96 % of control and 110 % of control (dose: 60.0 mg/kg/injection, schedule: Q01DX010 (ip), vehicle: saline); 92 % of control and 116 % of control (dose: 120.0 mg/kg/injection, schedule: Q01DX010 (ip), vehicle: saline); 96 % of control and 100 % of control (dose: 240.0 mg/kg/injection, schedule: Q01DX010 (ip), vehicle: saline); 86 % of control and 87 % of control (dose: 480.0 mg/kg/injection, schedule: Q01DX010 (ip), vehicle: saline).

In the case of `CCOC(N)=O`, the T/C was 107 % of control under setting [9]; 93 % of control under setting [11]; 100 % of control and 103 % of control under setting [1]; 106 % of control under setting [12]; 100 % of control and 103 % of control (dose: 250.0 mg/kg/injection, schedule: Q01DX010 (ip), vehicle: saline); 106 % of control (dose: 400.0 mg/kg/injection, schedule: Q01DX Z (ip), vehicle: saline). Further, the T/C by setting is: (dose: 500.0 mg/kg/injection, schedule: Q01DX010 (ip), vehicle: saline) 99 % of control and 101 % of control; under setting [15], 96 % of control; under setting [16], 91 % of control.

As to `N#Cc1cn(C2OC(CO)C(O)C2O)c2ncnc(N)c12` (stereo not drawn), the T/C (dose: 31.3 micrograms/kg/injection, schedule: Q01DX010 (ip), vehicle: saline) is 95 % of control; the T/C (dose: 62.5 micrograms/kg/injection, schedule: Q01DX010 (ip), vehicle: saline) is 99 % of control; the T/C (dose: 125.0 micrograms/kg/injection, schedule: Q01DX010 (ip), vehicle: saline) is 97 % of control.

In the case of `O=C(Nc1ccc(C2=NCCN2)cc1)c1cccc(C(=O)Nc2ccc(C3=NCCN3)cc2)c1`, the T/C runs as follows: under setting [5], 94 % of control and 101 % of control; under setting [6], 105 % of control and 110 % of control; under setting [8], 106 % of control and 110 % of control; (dose: 64.0 mg/kg/injection, schedule: Q01DX010 (ip), vehicle: saline) 120 % of control.

Turning to `N#[N+]c1cnc([O-])[nH]c1=O`, the T/C (dose: 1.25 mg/kg/injection, schedule: Q01DX010 (ip), vehicle: saline) was 110 % of control; the T/C (dose: 2.5 mg/kg/injection, schedule: Q01DX Z (ip), vehicle: alkali diluted with saline) was 102 % of control; the T/C (dose: 5.0 mg/kg/injection, schedule: Q01DX Z (ip), vehicle: alkali diluted with saline) is 102 % of control; the T/C (dose: 7.5 mg/kg/injection, schedule: Q01DX Z (ip), vehicle: alkali diluted with saline) is 106 % of control; the T/C (dose: 10.0 mg/kg/injection, schedule: Q01DX Z (ip), vehicle: saline) was 172 % of control; the T/C (dose: 15.0 mg/kg/injection, schedule: Q01DX Z (ip), vehicle: alkali diluted with saline) is 108 % of control. The T/C (dose: 20.0 mg/kg/injection, schedule: Q01DX Z (ip), vehicle: saline) is 96 % of control.

With `O=C(Nc1ccc(C(=O)Nc2ccc(C3=NCCCN3)cc2)cc1)Nc1ccc(C2=NCCCN2)cc1`, the T/C runs as follows: (dose: 1.88 mg/kg/injection, schedule: Q01DX010 (ip), vehicle: saline) 93 % of control and 108 % of control; (dose: 3.75 mg/kg/injection, schedule: Q01DX010 (ip), vehicle: saline) 95 % of control and 114 % of control; (dose: 7.5 mg/kg/injection, schedule: Q01DX010 (ip), vehicle: saline) 122 % of control and 119 % of control; under setting [13], 117 % of control.

As for `O=c1cnn(C2OC(CO)C(O)C2O)c(=O)[nH]1` (stereo not drawn), the T/C reads like this: under setting [9], 172 % of control; under setting [11], 164 % of control; (dose: 187.0 mg/kg/injection, schedule: Q01DX Z (ip), vehicle: saline) 181 % of control; (dose: 250.0 mg/kg/injection, schedule: Q01DX Z (ip), vehicle: saline) 224 % of control; (dose: 375.0 mg/kg/injection, schedule: Q01DX Z (ip), vehicle: saline) 218 % of control; under setting [15], 225 % of control. In addition, the T/C (dose: 750.0 mg/kg/injection, schedule: Q01DX Z (ip), vehicle: saline) is 222 % of control; the T/C (dose: 800.0 mg/kg/injection, schedule: Q01DX010 (ip), vehicle: saline) was 167 % of control; the T/C under setting [16] is 182 % of control; the T/C (dose: 1600.0 mg/kg/injection, schedule: Q01DX010 (ip), vehicle: saline) is 86 % of control.
